US10766903B2 (ALMAC DISCOVERY LIMITED, priority 2016, dated 2020)
Converted amounts (≈) assume the structure as drawn. Where two headings read alike, the source gives them in different places.

What was measured:
SJSA-1 cells = assay: p53, p21 and MDM2 protein levels by western blotting in SJSA-1; type: cell-based; conditions: SJSA-1, 24 h treatment
Protocol: This osteosarcoma cell line with a known functional p53 pathway was used as a second model for these experiments. Cells were treated as described above and samples analysed by western blotting as indicated. Similar observations were made with stabilisation of p53, p21 induction and MDM2 decreased levels in a concentration dependent manner.
p53, p21 and MDM2 Protein Levels

HCT116 cells = assay: p53, p21 and MDM2 protein levels by western blotting in HCT116; type: cell-based; conditions: HCT116, 24 h treatment
USP7 = USP7 (Homo sapiens (Human), UniProt Q93009); assay: USP7 fluorescence polarisation (FP) biochemical assay, ubiquitin-Lys-TAMRA substrate; conditions: read-out: USP7 IC50
Summary of the method: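 Full-length His6-USP7 (2.5 nM) incubated ± inhibitor (8-point dilutions, 200 to 0.1 μM before addition) in 50 mM HEPES pH 7.2, 150 mM NaCl, 0.5 mM EDTA, 5 mM DTT, 0.05% BSA, 0.05% CHAPS. Ubiquitin-Lys-TAMRA cleavage followed by FP (ex 530/em 575 nm) every 15 min for 1.5 h; normalised to no-compound control.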

Kinetic solubility assay = type: physicochemical; conditions: PBS buffer pH 7.4 with 2% DMSO, aqueous buffer, kinetic from dmso stock, PBS buffer pH 7.4, 2% DMSO, RT, read-out: KSol
Protocol: Samples were prepared by adding 4 μL of the 10 mM compound DMSO stock solutions into 196 μL of PBS buffer pH 7.4 in the 96 well filter plates, yielding a compound concentration of 200 μM and 2% DMSO. The PBS buffer pH7.4 was prepared by Genentech media lab. Filter plates were sealed with aluminum sealing film and shaken at RT at 1000 rpm. After 24 h, the solutions were filtered into a clean 96 well plates utilizing a vacuum manifold. After filtration, some precipitate was often observed at the bottom of the filtration plate wells. Most of the precipitates appeared to be crystalline under a polarizing light microscope. […]
Samples were detected and analyzed using UV 254 nm and CLND. UV 254 nm is used primarily to confirm the sample purity but in rare cases, is also used to quantify the concentration of compounds with no nitrogens, where additional work was done to create a compound specific calibration curve. […] Sample quantification was accomplished by CLND peak intensity, the calibration curve, and the number of nitrogen contained in the compound. One calibration curve of caffeine was used for solubility quantitative determination. […] The number of nitrogens in a compound used for this quantification needs to be corrected for the actual configuration of the nitrogen in the compound. […]

LNCaP cells = assay: LNCaP proliferation assay (CellTiter-Glo); type: cell-based; conditions: Homo sapiens, Table 1, cell viability after 168 h
Protocol: LNCaP cells from ATCC, were seeded in 96 well plate format (typically 2500 cells/well) in their growth media (RPMI, Life Technologies #52400-025+10% Fetal Calf Serum, Life Technologies #10500-064) and treated after 24 h with increasing concentration of compound from 0 to 30 μM. Cell viability was assessed after 168 h by CellTiter-Glo® as recommended by the manufacturer's instructions (Promega). Analysis and EC50 values were derived using GraphPadPrism.

[1] = Table 4, biochemical assay, average of at least duplicate experiments
[2] = Table 1, R9a = H versus R9a = Cl

USP7, sequence (Q93009 whole entry): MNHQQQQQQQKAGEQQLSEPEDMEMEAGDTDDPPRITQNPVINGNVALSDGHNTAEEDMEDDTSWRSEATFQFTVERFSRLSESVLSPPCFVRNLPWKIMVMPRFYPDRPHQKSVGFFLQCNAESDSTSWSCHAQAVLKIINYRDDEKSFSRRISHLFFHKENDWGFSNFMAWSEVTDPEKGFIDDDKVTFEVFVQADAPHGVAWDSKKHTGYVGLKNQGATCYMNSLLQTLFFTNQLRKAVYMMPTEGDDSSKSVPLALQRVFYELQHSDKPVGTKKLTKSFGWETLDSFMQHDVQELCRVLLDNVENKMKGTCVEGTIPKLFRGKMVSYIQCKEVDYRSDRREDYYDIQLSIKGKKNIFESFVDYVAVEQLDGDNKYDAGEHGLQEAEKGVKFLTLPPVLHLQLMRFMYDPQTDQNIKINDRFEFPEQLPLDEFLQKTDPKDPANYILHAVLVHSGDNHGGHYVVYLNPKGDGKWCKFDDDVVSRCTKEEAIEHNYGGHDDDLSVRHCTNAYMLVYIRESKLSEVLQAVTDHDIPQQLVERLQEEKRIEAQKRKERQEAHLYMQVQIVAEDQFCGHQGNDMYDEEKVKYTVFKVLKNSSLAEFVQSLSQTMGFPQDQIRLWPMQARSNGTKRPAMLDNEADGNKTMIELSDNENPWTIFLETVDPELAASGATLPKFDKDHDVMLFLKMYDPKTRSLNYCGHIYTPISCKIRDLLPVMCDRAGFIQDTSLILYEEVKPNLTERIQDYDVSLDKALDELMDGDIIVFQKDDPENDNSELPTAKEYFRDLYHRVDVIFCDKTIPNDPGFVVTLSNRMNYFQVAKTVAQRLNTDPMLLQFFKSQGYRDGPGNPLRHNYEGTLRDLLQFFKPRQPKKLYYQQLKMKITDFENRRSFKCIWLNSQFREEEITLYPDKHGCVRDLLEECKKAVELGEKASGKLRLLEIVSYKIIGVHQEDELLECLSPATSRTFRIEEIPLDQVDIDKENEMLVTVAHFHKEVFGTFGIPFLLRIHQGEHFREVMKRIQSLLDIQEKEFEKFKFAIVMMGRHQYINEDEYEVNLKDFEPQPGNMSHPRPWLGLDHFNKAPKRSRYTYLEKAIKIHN

SMILES | IC50 (USP7; [1]) | other results
C[C@H](CC(=O)N1CCC(O)(Cn2cnc3c(-c4cccc(N)c4)n(C)nc3c2=O)CC1)c1ccccc1 [Example 29, (R)-3-(3-Aminophenyl)-6-((4-hydroxy-1-(3-phenylbutanoyl)piperidin-4-yl)methyl)-2-methyl-2H-pyrazolo[4,3-d]pyrimidin-7(6H)-one] | – | p53, p21 and MDM2 protein levels (SJSA-1 cells): dose-dependent p53 stabilisation, p21 induction and concomitant decrease in MDM2 levels; p53, p21 and MDM2 protein levels (HCT116 cells): dose-dependent p53 stabilisation, p21 induction and concomitant decrease in MDM2 levels
CC1(C(=O)N2CCC(O)(Cn3cnc4c(cc(Cl)n4-c4ccccc4)c3=O)CC2)CC1 [Example 200, 6-Chloro-3-((4-hydroxy-1-(1-methylcyclopropanecarbonyl)piperidin-4-yl)methyl)-7-phenyl-3H-pyrrolo[2,3-d]pyrimidin-4(7H)-one] | 250 to 999 nM | solubility kinetic at 24 h (Kinetic solubility assay): 173 µM (≈ 76.3 µg/mL)
CC1(C(=O)N2CCC(O)(Cn3cnc4c(cc(Cl)n4-c4ccc5c(c4)OCO5)c3=O)CC2)CC1 [Example 202, 7-(Benzo[d][1,3]dioxol-5-yl)-6-chloro-3-((4-hydroxy-1-(1-methylcyclopropanecarbonyl)piperidin-4-yl)methyl)-3H-pyrrolo[2,3-d]pyrimidin-4(7H)-one] | 250 to 999 nM | IC50 (USP7; [2]): 250 nM; EC50 (LNCaP cells): 51 nM
CC1(C(=O)N2CCC(O)(Cn3cnc4c(cc(Cl)n4-c4ccc(Cl)cc4)c3=O)CC2)CC1 [Example 203, 6-Chloro-7-(4-chlorophenyl)-3-((4-hydroxy-1-(1-methylcyclopropanecarbonyl)piperidin-4-yl)methyl)-3H-pyrrolo[2,3-d]pyrimidin-4(7H)-one] | < 250 nM | IC50 (USP7; [2]): 220 nM; EC50 (LNCaP cells): 22 nM
Cn1cc(-c2cccc(-n3c(Cl)cc4c(=O)n(CC5(O)CCN(C(=O)C6(C)CC6)CC5)cnc43)c2)cn1 [Example 212, 6-Chloro-3-((4-hydroxy-1-(1-methylcyclopropanecarbonyl)piperidin-4-yl)methyl)-7-(3-(1-methyl-1H-pyrazol-4-yl)phenyl)-3H-pyrrolo[2,3-d]pyrimidin-4(7H)-one] | < 250 nM | IC50 (USP7; [2]): 140 nM; EC50 (LNCaP cells): 55 nM
Cn1cc(-c2cc(-n3c(Cl)cc4c(=O)n(CC5(O)CCN(C(=O)c6cnc(C7CC7)o6)CC5)cnc43)ccc2F)cn1 [Example 232, 6-Chloro-3-((1-(2-cyclopropyloxazole-5-carbonyl)-4-hydroxypiperidin-4-yl)methyl)-7-(4-fluoro-3-(1-methyl-1H-pyrazol-4-yl)phenyl)-3H-pyrrolo[2,3-d]pyrimidin-4(7H)-one] | < 250 nM | –
Cn1cc(-c2cc(-n3c(Cl)cc4c(=O)n(CC5(O)CCN(C(=O)C6(C)CC6)CC5)cnc43)ccc2F)cn1 [Example 233, 6-Chloro-7-(4-fluoro-3-(1-methyl-1H-pyrazol-4-yl)phenyl)-3-((4-hydroxy-1-(1-methylcyclopropanecarbonyl)piperidin-4-yl)methyl)-3H-pyrrolo[2,3-d]pyrimidin-4(7H)-one] | < 250 nM | –
CC1(C(=O)N2CCC(O)(Cn3cnc4c(cc(C#N)n4-c4ccccc4)c3=O)CC2)CC1 [Example 234, 3-((4-Hydroxy-1-(1-methylcyclopropanecarbonyl)piperidin-4-yl)methyl)-4-oxo-7-phenyl-4,7-dihydro-3H-pyrrolo[2,3-d]pyrimidine-6-carbonitrile] | < 250 nM | –
[2H]C1([2H])Oc2ccc(-n3c(Cl)cc4c(=O)n(CC5(O)CCN(C(=O)C6(C)CC6)CC5)cnc43)cc2O1 [Example 235, 7-(Benzo[d][1,3]dioxol-5-yl-2,2-d2)-6-chloro-3-((4-hydroxy-1-(1-methylcyclopropane-1-carbonyl)piperidin-4-yl)methyl)-3,7-dihydro-4H-pyrrolo[2,3-d]pyrimidin-4-one] | < 250 nM | –
[2H]C1([2H])Oc2ccc(-n3c(Cl)cc4c(=O)n(CC5(O)CCN(C(=O)c6cnc(C7CC7)o6)CC5)cnc43)cc2O1 [Example 236, 7-(Benzo[d][1,3]dioxol-5-yl-2,2-d2)-6-chloro-3-((1-(2-cyclopropyloxazole-5-carbonyl)-4-hydroxypiperidin-4-yl)methyl)-3,7-dihydro-4H-pyrrolo[2,3-d]pyrimidin-4-one] | < 250 nM | –
Cn1nc2c(=O)n(CC3(O)CCN(C(=O)C4(C)CC4)CC3)cnc2c1-c1ccc(CN)cc1 [Example 237, 3-(4-(Aminomethyl)phenyl)-6-((4-hydroxy-1-(1-methylcyclopropane-1-carbonyl)piperidin-4-yl)methyl)-2-methyl-2,6-dihydro-7H-pyrazolo[4,3-d]pyrimidin-7-one] | 1000 to 200000 nM | –
Cn1nc2c(=O)n(CC3(O)CCN(C(=O)c4cnc(C5CC5)o4)CC3)cnc2c1-c1ccc(CN)cc1 [Example 238, 3-(4-(Aminomethyl)phenyl)-6-((1-(2-cyclopropyloxazole-5-carbonyl)-4-hydroxypiperidin-4-yl)methyl)-2-methyl-2,6-dihydro-7H-pyrazolo[4,3-d]pyrimidin-7-one] | 250 to 999 nM | –
COc1ccc(-n2c(Cl)cc3c(=O)n(CC4(O)CCN(C(=O)C5(C)CC5)CC4)cnc32)cc1OC [Example 239, 6-Chloro-7-(3,4-dimethoxyphenyl)-3-((4-hydroxy-1-(1-methylcyclopropane-1-carbonyl)piperidin-4-yl)methyl)-3,7-dihydro-4H-pyrrolo[2,3-d]pyrimidin-4-one] | < 250 nM | –
COc1ccc(-n2c(Cl)cc3c(=O)n(CC4(O)CCN(C(=O)c5cnc(C6CC6)o5)CC4)cnc32)cc1OC [Example 240, 6-Chloro-3-((1-(2-cyclopropyloxazole-5-carbonyl)-4-hydroxypiperidin-4-yl)methyl)-7-(3,4-dimethoxyphenyl)-3,7-dihydro-4H-pyrrolo[2,3-d]pyrimidin-4-one] | < 250 nM | –
CC1(C(=O)N2CCC(O)(Cn3cnc4c(cc(Cl)n4-c4ccc(CN)cc4)c3=O)CC2)CC1 [Example 241, 7-(4-(Aminomethyl)phenyl)-6-chloro-3-((4-hydroxy-1-(1-methylcyclopropane-1-carbonyl)piperidin-4-yl)methyl)-3,7-dihydro-4H-pyrrolo[2,3-d]pyrimidin-4-one] | < 250 nM | –
NCc1ccc(-n2c(Cl)cc3c(=O)n(CC4(O)CCN(C(=O)c5cnc(C6CC6)o5)CC4)cnc32)cc1 [Example 242, 7-(4-(Aminomethyl)phenyl)-6-chloro-3-((1-(2-cyclopropyloxazole-5-carbonyl)-4-hydroxypiperidin-4-yl)methyl)-3,7-dihydro-4H-pyrrolo[2,3-d]pyrimidin-4-one] | < 250 nM | –
C[C@H](CC(=O)N1CCC(O)(Cn2cnc3c(-c4ccc(C(=O)O)cc4)n(C)nc3c2=O)CC1)c1ccccc1 [Example 243, (R)-4-(6-((4-Hydroxy-1-(3-phenylbutanoyl)piperidin-4-yl)methyl)-2-methyl-7-oxo-6,7-dihydro-2H-pyrazolo[4,3-d]pyrimidin-3-yl)benzoic Acid] | 1000 to 200000 nM | –
C[C@H](CC(=O)N1CCC(O)(Cn2cnc3c(-c4cccc(C(=O)O)c4)n(C)nc3c2=O)CC1)c1ccccc1 [Example 244, (R)-3-(6-((4-Hydroxy-1-(3-phenylbutanoyl)piperidin-4-yl)methyl)-2-methyl-7-oxo-6,7-dihydro-2H-pyrazolo[4,3-d]pyrimidin-3-yl)benzoic Acid] | 1000 to 200000 nM | –
Cn1nc2c(=O)n(CC3(O)CCN(C(=O)C4(C)CC4)CC3)cnc2c1-c1ccc(C(=O)O)cc1 [Example 245, 4-(6-((4-Hydroxy-1-(1-methylcyclopropane-1-carbonyl)piperidin-4-yl)methyl)-2-methyl-7-oxo-6,7-dihydro-2H-pyrazolo[4,3-d]pyrimidin-3-yl)benzoic Acid] | 1000 to 200000 nM | –
